These results are taken from US20240308988A1, “Method For Controlling Diamide Resistant Pests and Compounds Therefor” (priority 2021, published 2024).

Assay [1] has as its system Plutella xylostella (Diamond back moth) ryanodine receptor, containing the G4946E resistance mutation. As to the kind of experiment: In vitro calcium fluorescence assay (Fluo-8 NW, FDSS) in human embryonic kidney cells expressing the ryanodine receptor. As to conditions: table, EC50 (compound)/EC50 (cyantraniliprole), G4946E RyR in HEK cells; for REC50 (Comparative compound): secondary amide analogue. Format: cell-based. The procedure:
Human embryonic kidney cells expressing the Plutella xylostella (Diamond back moth) ryanodine receptor, containing the G4946E resistance mutation, are loaded with Fluo-8 No Wash (NW) calcium-sensitive dye which responds by fluorescence to a change in intracellular calcium (e.g. stimulated by activation of ryanodine receptor). Test compounds are added in 10 rates to a 384-well plate containing dye-loaded cells and the fluorescent signal is measured using the Hamamatsu FDSS (Functional Drug Screening system). Dose-response curves are plotted to estimate the EC50. EC50 are normalized against an in-assay reference standard (cyantraniliprole) to address inter-assay variability. The ratio for a given compound is then obtained by the following formula:
REC50=EC50 (compound)/EC50 (cyantraniliprole).

The subject of assay [2] is Resistant Plutella xylostella R1 (multi-resistant larvae having the G4946E resistance mutation). Put plainly: Resistant Plutella xylostella R1 (Diamond back moth) larvicide L3, feeding/contact, sprayed Chinese cabbage leaves. The format is in vivo. As to conditions: Plutella xylostella, 96 h, read-out: control of the resistant strain of Plutella xylostella R1. The procedure: Resistant Plutella xylostella R1 (Diamond back moth) larvicide L3, feeding/contact Chinese cabbage plants were sprayed with diluted test solutions in an application chamber. Cut off leaves were placed into petri dishes with wetted filter paper and infested 1 day after application with 10 L3 multi-resistant Plutella xylostella larvae having the G4946E resistance mutation.
Samples were assessed 4 days after infestation for mortality and growth regulation.
Chlorantraniliprole was used as standard and a resistance factor of 146 was obtained for this strain.
Plutella xylostella resistant strain R1 originally collected from Taiwan in 2012 that carries the RyR mutation G4946E conferring resistance to diamides. The strain is reared on cabbage plants (Brassica aleracea) and selected approximately every two weeks with chlorantraniliprole.

With `CNC(=O)c1cc(I)cc(F)c1NC(=O)c1cc(C(F)(F)F)nn1-c1ncccc1Cl`, the “REC50 (Comparative compound)” value in assay [1] is 3.99.

For `CNC(=O)c1cc(Br)cc(Br)c1NC(=O)c1cc(C(F)(F)F)nn1-c1ncccc1Cl`, the “REC50 (Comparative compound)” value in assay [1] amounted to 0.98.

On to `CNC(=O)c1cc(Cl)cc(Cl)c1NC(=O)c1cc(OC)nn1-c1ncccc1Cl`, for which the “REC50 (Comparative compound)” value in assay [1] is recorded as 1.20.

For `CNC(=O)c1cc(C#N)cc(C)c1NC(=O)c1cc(Cn2nnc(-c3ccc(C(F)(F)F)cc3)n2)nn1-c1ncccc1Cl`, in assay [1], the “REC50 (Comparative compound)” value came to 2.41.

Turning to `CNC(=O)c1cc(C#N)cc(C)c1NC(=O)c1cc(C(F)(F)F)nn1-c1ncccc1Cl`, the “REC50 (Comparative compound)” value in assay [1] turned out to be 3.65.

Take `Cc1cc(I)cc(C(=O)NC(C)C)c1NC(=O)c1cc(C(F)(F)F)nn1-c1ncccc1Cl`: in assay [1], the “REC50 (Comparative compound)” value is listed as 3.13.

As for `CNC(=O)c1cc(I)cc(C)c1NC(=O)c1cc(Br)nn1-c1ncccc1Cl`, the “REC50 (Comparative compound)” value in assay [1] is 0.76.

`CNC(=O)c1cc(Cl)cc(Cl)c1NC(=O)c1cc(Br)nn1-c1ncc(Cl)cc1Cl`: the “REC50 (Comparative compound)” value in assay [1] worked out at 0.47.

Consider `Cc1cc(Br)cc(C(=O)NC(C)C)c1NC(=O)c1cc(C(F)(F)F)nn1-c1ncccc1Cl`, for which the “REC50 (Comparative compound)” value in assay [1] is listed as 8.84.

With `CNC(=O)c1cc(Br)cc(Cl)c1NC(=O)c1cc(OC)nn1-c1ncccc1Cl`, the “REC50 (Comparative compound)” value in assay [1] is recorded as 1.32.

In the case of `CNC(=O)c1cc(Br)cc(C)c1NC(=O)c1cc(OC)nn1-c1ncccc1Cl`, the “REC50 (Comparative compound)” value in assay [1] came out at 1.39.

As to `Cc1cc(Cl)cc(C(=O)NC(C)C)c1NC(=O)c1cc(COCc2ccc(Cl)cc2)nn1-c1ncccc1Cl`, the “REC50 (Comparative compound)” value in assay [1] was 1.07.

As for `COc1cc(C(=O)Nc2c(C)cc(Cl)cc2C(=O)NC(C)C)n(-c2ncccc2Cl)n1`, the “REC50 (Comparative compound)” value in assay [1] is listed as 2.57.

For the compound `CNC(=O)c1cc(Cl)cc(C)c1NC(=O)c1cc(C(F)(F)F)nn1-c1ncccc1Cl`, the “REC50 (Comparative compound)” value in assay [1] amounted to 1.48.

Regarding `CNC(=O)c1cc(Cl)cc(C)c1NC(=O)c1cc(OC(F)F)nn1-c1ncccc1Cl`, the “REC50 (Comparative compound)” value in assay [1] is 0.58.

In the case of `CCc1cc(C(=O)Nc2c(C)cc(Cl)cc2C(=O)NC)n(-c2ncccc2Cl)n1`, the “REC50 (Comparative compound)” value in assay [1] was 1.41.

For the compound `CNC(=O)c1cc(Cl)cc(C)c1NC(=O)c1cc(C2CC2)nn1-c1ncccc1Cl`, the “REC50 (Comparative compound)” value in assay [1] turned out to be 1.15.

Consider `CNC(=O)c1cc(Cl)cc(C)c1NC(=O)c1cc(OCC(F)(F)C(F)(F)F)nn1-c1ncccc1Cl`, for which, in assay [1], the “REC50 (Comparative compound)” value was 1.85.

Take `CNC(=O)c1cc(Cl)cc(C)c1NC(=O)c1cc(OCC(F)(F)F)nn1-c1ncccc1Cl`: the “REC50 (Comparative compound)” value in assay [1] was 1.29.

On to `Cc1cc(Cl)cc(C(N)=O)c1NC(=O)c1cc(Cn2nnc(C3CC3)n2)nn1-c1ncccc1Cl` [Compound P2, N-(2-carbamoyl-4-chloro-6-methyl-phenyl)-2-(3-chloro-2-pyridyl)-5-[(5-cyclopropyltetrazol-2-yl)methyl]pyrazole-3-carboxamide], for which the pest or weed control at 50 µg/mL in assay [2] was no less than 80%.

As for `Cc1cc(Cl)cc(C(N)=O)c1NC(=O)c1cc(Cn2nnc(-c3ccc(C(F)(F)F)cc3)n2)nn1-c1ncccc1Cl` [Compound P6, N-(2-carbamoyl-4-chloro-6-methyl-phenyl)-2-(3-chloro-2-pyridyl)-5-[[5-[4-(trifluoromethyl)phenyl]tetrazol-2-yl]methyl]pyrazole-3-carboxamide], the pest or weed control at 50 µg/mL in assay [2] was no less than 80%.

On to `Cc1cc(Cl)cc(C(N)=O)c1NC(=O)c1cc(OCC(F)(F)C(F)(F)F)nn1-c1ncccc1Cl` [Compound P8, N-(2-carbamoyl-4-chloro-6-methyl-phenyl)-2-(3-chloro-2-pyridyl)-5-(2,2,3,3,3-pentafluoropropoxy)pyrazole-3-carboxamide], for which the pest or weed control at 50 µg/mL in assay [2] was no less than 80%. Further, the “REC50 (Compound of the invention)” value in assay [1] amounted to 0.14.

As for `COc1cc(C(=O)Nc2c(C)cc(Cl)cc2C(N)=O)n(-c2ncccc2Cl)n1` [Compound P9, N-(2-carbamoyl-4-chloro-6-methyl-phenyl)-2-(3-chloro-2-pyridyl)-5-methoxy-pyrazole-3-carboxamide], the pest or weed control at 50 µg/mL in assay [2] was no less than 80%. Besides, the “REC50 (Compound of the invention)” value in assay [1] was found to be 0.37.

`COc1cc(C(=O)Nc2c(C)cc(I)cc2C(N)=O)n(-c2ncccc2Cl)n1` [Compound P10, N-(2-carbamoyl-4-iodo-6-methyl-phenyl)-2-(3-chloro-2-pyridyl)-5-methoxy-pyrazole-3-carboxamide]: the pest or weed control at 50 µg/mL in assay [2] is no less than 80%.

Take `Cc1cc(Cl)cc(C(N)=O)c1NC(=O)c1cc(Cn2nnnc2-c2ccc(C(F)(F)F)cc2)nn1-c1ncccc1Cl` [Compound P15, N-(2-carbamoyl-4-chloro-6-methyl-phenyl)-2-(3-chloro-2-pyridyl)-5-[[5-[4-(trifluoromethyl)phenyl]tetrazol-1-yl]methyl]pyrazole-3-carboxamide]: the pest or weed control at 50 µg/mL in assay [2] was no less than 80%.

Take `Cc1cc(Cl)cc(C(N)=O)c1NC(=O)c1cc(Cn2ncc(C(F)(F)F)n2)nn1-c1ncccc1Cl` [Compound P19, N-(2-carbamoyl-4-chloro-6-methyl-phenyl)-2-(3-chloro-2-pyridyl)-5-[[4-(trifluoromethyl)triazol-2-yl]methyl]pyrazole-3-carboxamide]: in assay [2], the pest or weed control at 50 µg/mL was no less than 80%.

`Cc1cc(Cl)cc(C(N)=O)c1NC(=O)c1cc(Cn2cc(C(F)(F)F)nn2)nn1-c1ncccc1Cl` [Compound P20, N-(2-carbamoyl-4-chloro-6-methyl-phenyl)-2-(3-chloro-2-pyridyl)-5-[[4-(trifluoromethyl)triazol-1-yl]methyl] pyrazole-3-carboxamide]: the pest or weed control at 50 µg/mL in assay [2] is no less than 80%.

As for `Cc1cc(Cl)cc(C(N)=O)c1NC(=O)c1cc(OC(F)F)nn1-c1ncccc1Cl` [Compound P21, N-(2-carbamoyl-4-chloro-6-methyl-phenyl)-2-(3-chloro-2-pyridyl)-5-(difluoromethoxy)pyrazole-3-carboxamide], the pest or weed control at 50 µg/mL in assay [2] was no less than 80%. Moreover, in assay [1], the “REC50 (Compound of the invention)” value is 0.25.

With `Cc1cc(Cl)cc(C(N)=O)c1NC(=O)c1cc(C(F)F)nn1-c1ncccc1Cl` [Compound P22, N-(2-carbamoyl-4-chloro-6-methyl-phenyl)-2-(3-chloro-2-pyridyl)-5-(difluoromethyl)pyrazole-3-carboxamide], the pest or weed control at 50 µg/mL in assay [2] was no less than 80%.

In the case of `Cc1cc(Cl)cc(C(N)=O)c1NC(=O)c1cc(OCC(F)(F)F)nn1-c1ncccc1Cl` [Compound P23, N-(2-carbamoyl-4-chloro-6-methyl-phenyl)-2-(3-chloro-2-pyridyl)-5-(2,2,2-trifluoroethoxy)pyrazole-3-carboxamide], the pest or weed control at 50 µg/mL in assay [2] was no less than 80%. Besides, the “REC50 (Compound of the invention)” value in assay [1] was 0.17.

As to `Cc1cc(C#N)cc(C(N)=O)c1NC(=O)c1cc(C(F)F)nn1-c1ncccc1Cl` [Compound P28, N-(2-carbamoyl-4-cyano-6-methyl-phenyl)-2-(3-chloro-2-pyridyl)-5-(difluoromethyl)pyrazole-3-carboxamide], in assay [2], the pest or weed control at 50 µg/mL is no less than 80%.

For `Cc1cc(C#N)cc(C(N)=O)c1NC(=O)c1cc(OCC(F)(F)F)nn1-c1ncccc1Cl` [Compound P32, N-(2-carbamoyl-4-cyano-6-methyl-phenyl)-2-(3-chloro-2-pyridyl)-5-(2,2,2-trifluoroethoxy)pyrazole-3-carboxamide], in assay [2], the pest or weed control at 50 µg/mL was no less than 80%.

With `NC(=O)c1cc(Br)cc(Cl)c1NC(=O)c1cc(Cn2nnc(-c3ccc(C(F)(F)F)cc3)n2)nn1-c1ncccc1Cl` [Compound P44, N-(4-bromo-2-carbamoyl-6-chloro-phenyl)-2-(3-chloro-2-pyridyl)-5-[[5-[4-(trifluoromethyl)phenyl]tetrazol-2-yl]methyl]pyrazole-3-carboxamide], the pest or weed control at 50 µg/mL in assay [2] was no less than 80%.

As for `NC(=O)c1cc(Cl)cc(Br)c1NC(=O)c1cc(Cn2nnc(-c3ccc(C(F)(F)F)cc3)n2)nn1-c1ncccc1Cl` [Compound P57, N-(2-bromo-6-carbamoyl-4-chloro-phenyl)-2-(3-chloro-2-pyridyl)-5-[[5-[4-(trifluoromethyl)phenyl]tetrazol-2-yl]methyl]pyrazole-3-carboxamide], the pest or weed control at 50 µg/mL in assay [2] was no less than 80%.

For the compound `Cc1cc(I)cc(C(N)=O)c1NC(=O)c1cc(Cn2nnc(-c3ccc(C(F)(F)F)cc3)n2)nn1-c1ncccc1Cl` [Compound P62, N-(2-carbamoyl-4-iodo-6-methyl-phenyl)-2-(3-chloro-2-pyridyl)-5-[[5-[4-(trifluoromethyl)phenyl]tetrazol-2-yl]methyl]pyrazole-3-carboxamide], in assay [2], the pest or weed control at 50 µg/mL is no less than 80%.

For `CNC(=O)c1cc(C#N)cc(C)c1NC(=O)c1cc(Br)nn1-c1ncccc1Cl` [Cyantraniliprole, cyantraniliprole, reference compound], in assay [1], the “REC50 (Comparative compound)” value amounted to 1.00.

`CC(NC(=O)c1cc(Cl)cc(Br)c1NC(=O)c1cc(Br)nn1-c1ncccc1Cl)C1CC1` (centres unmarked) [Cyclaniliprole, cyclaniliprole, reference compound]: the “REC50 (Comparative compound)” value in assay [1] was determined as 4.70.
